Activity calls are given as the source filed them. The rule behind the calls is not given here.
Legend:
K562 = assay: Antiproliferative activity against human K562 cells assessed as reduction in cell viability incubated for 72 hrs by resazurin dye based assay; type: functional; conditions: K562, 72 h
CCRF-CEM = assay: Antiproliferative activity against human CEM cells assessed as reduction in cell viability incubated for 72 hrs by resazurin dye based assay; type: functional
MV4-11 = assay: Antiproliferative activity against human MV4-11 cells assessed as reduction in cell viability incubated for 72 hrs by resazurin dye based assay; type: functional; conditions: MV4-11, 72 h
RS4-11 [1] = assay: Downregulation of HOXA9 protein expression in human RS4-11 cells at 5 to 20 uM measured after 24 hrs by Western blot analysis; type: functional, cell-based; conditions: dose 5-20 µM
RS4-11 [2] = assay: Induction of cell cycle arrest in human RS4-11 cells assessed as accumulation of cells in G2/M phase at 1.25 to 10 uM measured after 72 hrs by PI staining based flow cytometry analysis; type: functional; conditions: dose 1.25-10 µM
ML-2 = assay: Antiproliferative activity against human ML-2 cells assessed as reduction in cell viability incubated for 72 hrs by resazurin dye based assay; type: functional; conditions: ML-2, 72 h
RS4-11 [3] = assay: Antiproliferative activity against human RS4-11 cells assessed as reduction in cell viability incubated for 72 hrs by resazurin dye based assay; type: functional; conditions: RS4-11, 72 h
RS4-11 [4] = assay: Downregulation of MEIS1 protein expression in human RS4-11 cells at 5 to 20 uM measured after 24 hrs by Western blot analysis; type: functional, cell-based; conditions: dose 5-20 µM
RS4-11 [5] = assay: Induction of cell cycle arrest in human RS4-11 cells assessed as accumulation of cells in subG1 phase at 1.25 to 10 uM measured after 72 hrs by PI staining based flow cytometry analysis; type: functional; conditions: dose 1.25-10 µM
KOPN-8 = assay: Antiproliferative activity against human KOPN-8 cells assessed as reduction in cell viability incubated for 72 hrs by resazurin dye based assay; type: functional; conditions: KOPN-8, 72 h
RS4-11 [6] = assay: Induction of cell cycle arrest in human RS4-11 cells assessed as accumulation of cells in G2/M phase measured after 48 hrs by PI staining based flow cytometry analysis; type: functional; conditions: dose 1.25-10 µM, DDE = dose-dependent effect

IC50 (K562)	IC50 (CCRF-CEM)	IC50 (MV4-11)	IC50 (RS4-11 [3])	SMILES	Activity (RS4-11 [1])	Activity (RS4-11 [2])	IC50 (ML-2)	Activity (RS4-11 [4])	Activity (RS4-11 [5])	IC50 (KOPN-8)	Activity (RS4-11 [6])
15400 nM	37300 nM	44200 nM	–	COc1cc(-c2c(C#N)c(-c3cccs3)nc3c2c(-c2ccccc2)nn3-c2ccccc2)ccc1O	–	–	–	–	–	–	–
2100 nM	6700 nM	1600 nM	1000 nM	COc1ccc(-c2nc3c(c(-c4ccccc4)nn3-c3ccccc3)c(-c3ccc(O)cc3)c2C#N)cc1	Active	Active	400 nM	Active	Active	200 nM	Dde

Source: ChEMBL document CHEMBL5131391, “One-pot three-component synthesis of novel pyrazolo[3,4-b]pyridines as potent antileukemic agents” (Eur J Med Chem, 2022)
